For data set [1], the system named is Abeta 1-42 produced and secreted by SKNBE2 cells expressing hAPP695. The data set is described as follows: Cellular αLisa assay in SKNBE2 cells - Abeta 42. Type of data set: cell-based, human. The settings on record: Homo sapiens, incubated for 18 hours, read-out: Cellular αLisa assay in SKNBE2 cells Abeta 42 pIC50 (converted).
The subject of data set [2] is Abeta total produced and secreted by SKNBE2 cells expressing hAPP695. The data set is described as follows: Cellular αLisa assay in SKNBE2 cells - Abeta total. Type of data set: cell-based. The settings on record: Homo sapiens, incubated for 18 hours, read-out: Cellular αLisa assay in SKNBE2 cells Abeta total pIC50 (converted). How it is done:
Cellular αLisa Assay in SKNBE2 Cells
In two αLisa assays the levels of Abeta total and Abeta 1-42 produced and secreted into the medium of human neuroblastoma SKNBE2 cells are quantified. The assay is based on the human neuroblastoma SKNBE2 expressing the wild type Amyloid Precursor Protein (hAPP695). The compounds are diluted and added to these cells, incubated for 18 hours and then measurements of Abeta 1-42 and Abeta total are taken. Abeta total and Abeta 1-42 are measured by sandwich αLisa. αLisa is a sandwich assay using biotinylated antibody AbN/25 attached to streptavidin coated beads and antibody Ab4G8 or cAb42/26 conjugated acceptor beads for the detection of Abeta total and Abeta 1-42 respectively. In the presence of Abeta total or Abeta 1-42, the beads come into close proximity. The excitation of the donor beads provokes the release of singlet oxygen molecules that trigger a cascade of energy transfer in the acceptor beads, resulting in light emission. Light emission is measured after 1 hour incubation (excitation at […] and emission at 615 nm).
(§1) A best-fit curve is fitted by a minimum sum of squares method to the plot of % Controlmin versus compound concentration. From this an IC50 value (inhibitory concentration causing 50% inhibition of activity) can be obtained.

The target of data set [3] is T1, recombinant BACE1 protein (Homo sapiens, UniProt P56817).
T1 construct: recombinant BACE1 protein in a final concentration of 1 μg/ml
T1 sequence (P56817 46-501): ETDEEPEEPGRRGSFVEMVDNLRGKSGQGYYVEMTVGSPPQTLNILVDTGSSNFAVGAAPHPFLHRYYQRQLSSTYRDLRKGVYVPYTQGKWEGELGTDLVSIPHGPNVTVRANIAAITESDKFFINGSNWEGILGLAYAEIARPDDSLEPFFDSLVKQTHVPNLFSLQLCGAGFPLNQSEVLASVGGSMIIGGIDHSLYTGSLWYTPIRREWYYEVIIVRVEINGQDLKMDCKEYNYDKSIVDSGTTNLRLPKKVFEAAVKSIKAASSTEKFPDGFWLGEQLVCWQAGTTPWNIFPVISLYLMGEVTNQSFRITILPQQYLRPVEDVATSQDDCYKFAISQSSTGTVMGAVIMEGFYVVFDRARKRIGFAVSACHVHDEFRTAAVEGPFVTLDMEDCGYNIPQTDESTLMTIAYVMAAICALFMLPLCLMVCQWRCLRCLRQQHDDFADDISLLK
Nature of the data set: BACE1 biochemical FRET based assay - Method 1. The settings on record: BACE1 1 μg/ml, 120 minutes, 10 μm substrate, pH 5.0; read-out: Biochemical FRET based assay - Method 1 pIC50 (converted).
Source text: BACE1 Biochemical FRET Based Assay
This assay is a Fluorescence Resonance Energy Transfer Assay (FRET) based assay. The substrate for this assay is an APP derived 13 amino acids peptide that contains the ‘Swedish’ Lys-Met/Asn-Leu mutation of the amyloid precursor protein (APP) beta-secretase cleavage site. This substrate also contains two fluorophores: (7-methoxycoumarin-4-yl) acetic acid (Mca) is a fluorescent donor with excitation wavelength at 320 nm and emission at 405 nm and 2,4-Dinitrophenyl (Dnp) is a proprietary quencher acceptor. […] Upon cleavage by BACE1, the fluorophore Mca is separated from the quenching group Dnp, restoring the full fluorescence yield of the donor. The increase in fluorescence is linearly related to the rate of proteolysis.
Briefly in a 384-well format recombinant BACE1 protein in a final concentration of 1 μg/ml is incubated for 120 minutes at room temperature with 10 μm substrate in incubation buffer (40 mM Citrate buffer pH 5.0, 0.04% PEG, 4% DMSO) in the absence or presence of compound. Next the amount of proteolysis is directly measured by fluorescence measurement at T=0 and T=120 (excitation at 320 nm and emission at 405 nm). Results are expressed in RFU (Relative Fluorescence Units), as difference between T120 and T0.
as §1

In data set [4] the target is T2, recombinant BACE2 protein (Homo sapiens, UniProt Q9Y5Z0).
T2 construct: recombinant BACE2 protein in a final concentration of 0.4 μg/nil
T2 sequence (Q9Y5Z0 63-518): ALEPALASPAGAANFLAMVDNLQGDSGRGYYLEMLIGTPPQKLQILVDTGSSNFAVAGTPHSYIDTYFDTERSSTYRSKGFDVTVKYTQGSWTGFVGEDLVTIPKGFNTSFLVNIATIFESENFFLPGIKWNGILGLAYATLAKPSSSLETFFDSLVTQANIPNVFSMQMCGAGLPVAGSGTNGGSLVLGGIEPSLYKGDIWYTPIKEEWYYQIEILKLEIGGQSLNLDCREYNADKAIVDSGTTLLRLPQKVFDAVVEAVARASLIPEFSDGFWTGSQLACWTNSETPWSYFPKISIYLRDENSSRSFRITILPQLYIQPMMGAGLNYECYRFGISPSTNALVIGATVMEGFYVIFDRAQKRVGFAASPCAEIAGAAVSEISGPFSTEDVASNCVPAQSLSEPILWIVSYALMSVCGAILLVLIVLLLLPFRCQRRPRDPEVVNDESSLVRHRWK
The data set is described as follows: BACE2 biochemical FRET based assay. The settings on record: BACE2 0.4 μg/nil, 450 minutes, 10 μM substrate, pH 5.0; read-out: Biochemical FRET based assay pIC50 (BACE2) (converted).

The target of data set [5] is T1, recombinant BACE1 protein. Nature of the data set: BACE1 biochemical FRET based assay - Method 2. As to conditions: BACE1 0.04 μg/ml, 450 minutes, 20 μM substrate, pH 5.0; read-out: Biochemical FRET based assay- Method 2 pIC50 (converted).

For `C[C@@]1(c2cc(NC(=O)c3ccn(C(F)F)n3)ccc2F)C[C@@H](C(F)(F)F)CC(N)=N1` [Compound 13], the melting point came out at 139.83 °C. Also, the IC50 in data set [1] is 22.4 nM. Further, the IC50 in data set [2] is 24 nM. Also, the IC50 in data set [3] was 38.9 nM. Also, in data set [4], the IC50 is 3.09 nM. For the same molecule, the IC50 in data set [5] is 6.17 nM.

Values taken from US10106524B2, “2,3,4,5-tetrahydropyridin-6-amine and 3,4-dihydro-2H-pyrrol-5-amine compound inhibitors of beta-secretase” (Janssen Pharmaceutica NV, priority 2015, dated 2018).
